The text below walks through data of patent US20260053834A1, “COVALENT MODIFIERS OF AKT1 AND USES THEREOF” (Terremoto Biosciences, Inc., priority 2023, published 2026).

The target in one test is T1, AKT1 E17K (Homo sapiens, UniProt P31749, E17K).
T1 construct: expressed in transfected cells; host or cells: HEK293
Kind of test: Live cell target engagement by NanoBRET competitive probe displacement, AKT1 E17K. Format: binding. The settings on record: transfected HEK293 cells, 2 h at 37° C., read-out: AKT1 E17K IC50: GeoMean IC50.

The next test addresses T2, AKT1 WT (Homo sapiens, UniProt P31749).
T2 construct: expressed in transfected cells; host or cells: HEK293
In words: Live cell target engagement by NanoBRET competitive probe displacement, AKT1 WT. Conditions: transfected HEK293 cells, 2 h at 37° C., read-out: AKT1 WT IC50: GeoMean IC50. Format: binding.

The target in another test is T3, AKT2 (Homo sapiens, UniProt P31751).
T3 construct: expressed in transfected cells; host or cells: HEK293
Kind of test: Live cell target engagement by NanoBRET competitive probe displacement, AKT2. Format: binding. The settings on record: transfected HEK293 cells, 2 h at 37° C., read-out: AKT2 IC50: GeoMean IC50. Background: Bioluminescence resonance energy transfer reports proximity on the nanometre scale.

Test [1] concerns LAPC4 prostate cancer cells, which express the AKT1 E17K allele. Kind of test: Antiproliferative effects in LAPC4 cells (CellTiter Glo, 72 h). Format: cell-based. The settings on record: Homo sapiens, LAPC4, 72 h, read-out: LAPC4 proliferation IC50: GeoMean IC50. Summed up:
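IC50 values come from Hill-equation fitting of luminescence (cellular ATP) after 72 h compound exposure. Treated wells held 1,000 cells each, with compound delivered as DMSO dilutions. Culture medium was IMDM plus 12% FBS.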
For orientation: ATP-based viability assays read luminescence as a measure of living cells.

pIC50: −log10 of the molar value.

T3 sequence (P31751 whole entry): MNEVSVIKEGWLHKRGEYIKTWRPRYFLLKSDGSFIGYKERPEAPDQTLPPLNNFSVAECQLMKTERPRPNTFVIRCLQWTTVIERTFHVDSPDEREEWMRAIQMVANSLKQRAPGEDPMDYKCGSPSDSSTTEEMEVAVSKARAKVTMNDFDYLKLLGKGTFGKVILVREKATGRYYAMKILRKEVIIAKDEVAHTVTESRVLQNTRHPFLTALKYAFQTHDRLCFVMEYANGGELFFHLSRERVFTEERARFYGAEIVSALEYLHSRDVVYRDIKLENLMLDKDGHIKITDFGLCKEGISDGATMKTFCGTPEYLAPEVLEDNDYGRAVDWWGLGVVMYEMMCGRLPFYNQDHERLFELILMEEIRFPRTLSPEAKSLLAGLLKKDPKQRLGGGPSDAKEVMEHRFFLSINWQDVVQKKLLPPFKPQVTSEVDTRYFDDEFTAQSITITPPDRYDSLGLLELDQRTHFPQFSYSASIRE
T1 sequence (P31749 whole entry E17K): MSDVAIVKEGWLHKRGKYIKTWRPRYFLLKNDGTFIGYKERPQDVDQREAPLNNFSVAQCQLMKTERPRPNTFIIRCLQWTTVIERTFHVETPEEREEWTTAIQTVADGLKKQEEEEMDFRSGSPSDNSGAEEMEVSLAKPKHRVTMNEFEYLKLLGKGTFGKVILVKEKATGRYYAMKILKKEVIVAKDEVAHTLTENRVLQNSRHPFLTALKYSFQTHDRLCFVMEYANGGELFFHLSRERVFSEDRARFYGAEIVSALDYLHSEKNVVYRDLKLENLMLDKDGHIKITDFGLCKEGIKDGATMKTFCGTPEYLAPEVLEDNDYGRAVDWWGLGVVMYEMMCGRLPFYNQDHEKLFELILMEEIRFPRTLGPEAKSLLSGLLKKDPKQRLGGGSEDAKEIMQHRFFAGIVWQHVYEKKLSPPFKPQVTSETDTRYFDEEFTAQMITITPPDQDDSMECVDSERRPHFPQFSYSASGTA
T2 sequence (P31749 whole entry): as the sequence (P31749 whole entry E17K) above, with K17E counted along it

As to `N#Cc1cc(O)c(C=O)cc1C(=O)N[C@H]1CCc2cc(-n3c(-c4cccnc4N)nc4ccc(-n5cccn5)nc43)ccc21` [Example 250, (S)—N-(5-(2-(2-aminopyridin-3-yl)-5-(1H-pyrazol-1-yl)-3H-imidazo[4,5-b]pyridin-3-yl)-2,3-dihydro-1H-inden-1-yl)-2-cyano-5-formyl-4-hydroxybenzamide], the pIC50 (at AKT1 E17K; on AKT1 WT; on AKT2; in test [1]) was at most 5.70 each time.
For the compound `Nc1ncccc1-c1nc2ccc(-c3ncc(F)s3)nc2n1-c1ccc2c(c1)CC[C@@H]2NC(=O)c1cc(C=O)c(O)c(F)c1F` [Example 193, N-[(1S)-5-[2-(2-aminopyridin-3-yl)-5-(5-fluoro-1,3-thiazol-2-yl)imidazo[4,5-b]pyridin-3-yl]-2,3-dihydro-1H-inden-1-yl]-2,3-difluoro-5-formyl-4-hydroxybenzamide], the pIC50 (at AKT1 E17K; on AKT1 WT; at AKT2; in test [1]) was 7.00 to 8.00 each time.
For the compound `Nc1ncccc1-c1nc2ccc(-n3cccn3)nc2n1-c1ccc2c(c1)CC[C@@H]2n1c(=O)[nH]c2cc(O)c(C=O)cc2c1=O` [Example 238, 3-[(1S)-5-[2-(2-aminopyridin-3-yl)-5-(pyrazol-1-yl)imidazo[4,5-b]pyridin-3-yl]-2,3-dihydro-1H-inden-1-yl]-7-hydroxy-2,4-dioxo-1H-quinazoline-6-carbaldehyde], the pIC50 on AKT1 E17K is 5.70 to 7.00; at AKT1 WT it was at most 5.70; on AKT2, at most 5.70; in test [1], at most 5.70.
In the case of `Nc1ncccc1-c1nc2ccc(-c3ncc[nH]3)nc2n1-c1ccc2c(c1)CC[C@@H]2NC(=O)c1ccc(O)c(C=O)c1` [Example 194, N-[(1S)-5-[2-(2-aminopyridin-3-yl)-5-(1H-imidazol-2-yl)imidazo[4,5-b]pyridin-3-yl]-2,3-dihydro-1H-inden-1-yl]-3-formyl-4-hydroxybenzamide], the pIC50 is 7.00 to 8.00 on AKT1 E17K, 5.70 to 7.00 on AKT1 WT, 5.70 to 7.00 on AKT2 and 5.70 to 7.00 in test [1].
On to `Cc1cc(C)n(-c2ccc3nc(-c4cccnc4N)n(-c4ccc5c(c4)CC[C@@H]5NC(=O)c4ccc(O)c(C=O)c4)c3n2)n1` [Example 129, N-[(1S)-5-[2-(2-aminopyridin-3-yl)-5-(3,5-dimethylpyrazol-1-yl)imidazo[4,5-b]pyridin-3-yl]-2,3-dihydro-1H-inden-1-yl]-3-formyl-4-hydroxybenzamide], for which the pIC50 is 7.00 to 8.00 at AKT1 E17K, 7.00 to 8.00 at AKT1 WT, 5.70 to 7.00 on AKT2 and 5.70 to 7.00 in test [1].
On to `Nc1ncccc1-c1nc2ccc(-n3ncc4c3COC4)nc2n1-c1ccc2c(c1)CC[C@@H]2NC(=O)c1ccc(O)c(C=O)c1` [Example 206, N-[(1S)-5-[2-(2-aminopyridin-3-yl)-5-{4H,6H-furo[3,4-c]pyrazol-1-yl}imidazo[4,5-b]pyridin-3-yl]-2,3-dihydro-1H-inden-1-yl]-3-formyl-4-hydroxybenzamide], for which the pIC50 on AKT1 E17K is above 8.00; at AKT1 WT it was 7.00 to 8.00; on AKT2, 5.70 to 7.00; in test [1] it was 7.00 to 8.00.
Consider `CN(C)C(=O)Nc1ccc(C(=O)N[C@H]2CCc3cc(-n4c(-c5cccnc5N)nc5ccc(-n6ccc(F)n6)nc54)ccc32)cc1C=O` [Example 122, N-[(1S)-5-[2-(2-aminopyridin-3-yl)-5-(3-fluoropyrazol-1-yl)imidazo[4,5-b]pyridin-3-yl]-2,3-dihydro-1H-inden-1-yl]-4-[(dimethylcarbamoyl)amino]-3-formylbenzamide], for which the pIC50 is above 8.00 at AKT1 E17K, 7.00 to 8.00 on AKT1 WT, 5.70 to 7.00 on AKT2 and 7.00 to 8.00 in test [1].
Regarding `Nc1ncccc1-c1nc2ccc(-c3nccs3)nc2n1-c1ccc2c(c1)CC[C@@H]2NC(=O)c1ccc(O)c(C=O)c1` [Example 57, N-[(1S)-5-[2-(2-aminopyridin-3-yl)-5-(1,3-thiazol-2-yl)imidazo[4,5-b]pyridin-3-yl]-2,3-dihydro-1H-inden-1-yl]-3-formyl-4-hydroxybenzamide], the pIC50 is 7.00 to 8.00 on AKT1 E17K, 7.00 to 8.00 at AKT1 WT, 5.70 to 7.00 on AKT2 and 7.00 to 8.00 in test [1].
For the compound `Cc1ccc2nc(-c3cccnc3N)n(-c3ccc4c(c3)CC[C@@H]4NC(=O)c3ccc(O)c(C=O)c3)c2n1` [Example 13, N-[(1S)-5-[2-(2-aminopyridin-3-yl)-5-methylimidazo[4,5-b]pyridin-3-yl]-2,3-dihydro-1H-inden-1-yl]-3-formyl-4-hydroxybenzamide], the pIC50 was 7.00 to 8.00 on AKT1 E17K, 5.70 to 7.00 at AKT1 WT, at most 5.70 at AKT2 and 5.70 to 7.00 in test [1].
Regarding `Nc1ncccc1-c1nc2ccc(-c3cccnc3)nc2n1-c1ccc2c(c1)CC[C@@H]2NC(=O)c1ccc(O)c(C=O)c1` [Example 23, N-[(1S)-5-[2-(2-aminopyridin-3-yl)-5-(pyridin-3-yl)imidazo[4,5-b]pyridin-3-yl]-2,3-dihydro-1H-inden-1-yl]-3-formyl-4-hydroxybenzamide], the pIC50 on AKT1 E17K was 7.00 to 8.00; on AKT1 WT it was 7.00 to 8.00; on AKT2, 5.70 to 7.00; in test [1], 7.00 to 8.00.
Take `COCc1ccn(-c2ccc3nc(-c4cccnc4N)n(-c4ccc5c(c4)CC[C@@H]5NC(=O)c4ccc(O)c(C=O)c4)c3n2)n1` [Example 126, N-[(1S)-5-[2-(2-aminopyridin-3-yl)-5-[3-(methoxymethyl)pyrazol-1-yl]imidazo[4,5-b]pyridin-3-yl]-2,3-dihydro-1H-inden-1-yl]-3-formyl-4-hydroxybenzamide]: the pIC50 on AKT1 E17K is above 8.00; on AKT1 WT, 7.00 to 8.00; at AKT2 it was 5.70 to 7.00; in test [1], 7.00 to 8.00.
As to `C#Cc1ccn(-c2ccc3nc(-c4cccnc4N)n(-c4ccc5c(c4)CC[C@@H]5NC(=O)c4ccc(O)c(C=O)c4)c3n2)n1` [Example 119, N-[(1S)-5-[2-(2-aminopyridin-3-yl)-5-(3-ethynylpyrazol-1-yl)imidazo[4,5-b]pyridin-3-yl]-2,3-dihydro-1H-inden-1-yl]-3-formyl-4-hydroxybenzamide], the pIC50 on AKT1 E17K was above 8.00; on AKT1 WT, 7.00 to 8.00; on AKT2, 5.70 to 7.00; in test [1], 7.00 to 8.00.
For the compound `Cc1cnc(-c2ccc3nc(-c4cccnc4N)n(-c4ccc5c(c4)CC[C@@H]5NC(=O)c4ccc(O)c(C=O)c4)c3n2)o1` [Example 174, N-[(1S)-5-[2-(2-aminopyridin-3-yl)-5-(5-methyl-1,3-oxazol-2-yl)imidazo[4,5-b]pyridin-3-yl]-2,3-dihydro-1H-inden-1-yl]-3-formyl-4-hydroxybenzamide], the pIC50 is 7.00 to 8.00 at AKT1 E17K, 7.00 to 8.00 at AKT1 WT, 5.70 to 7.00 on AKT2 and 5.70 to 7.00 in test [1].
Take `Nc1ncccc1-c1nc2ccc(-n3cccn3)nc2n1-c1ccc2c(c1)CC[C@@H]2NC(=O)c1ccc(O)c(C=O)c1F` [Example 255, (S)—N-(5-(2-(2-aminopyridin-3-yl)-5-(1H-pyrazol-1-yl)-3H-imidazo[4,5-b]pyridin-3-yl)-2,3-dihydro-1H-inden-1-yl)-2-fluoro-3-formyl-4-hydroxybenzamide]: the pIC50 is 7.00 to 8.00 on AKT1 E17K, 5.70 to 7.00 on AKT1 WT, 5.70 to 7.00 on AKT2 and 5.70 to 7.00 in test [1].
On to `Nc1ncccc1-c1nc2ccc(F)nc2n1-c1ccc2c(c1)CC[C@@H]2NC(=O)c1ccc(O)c(C=O)c1` [Example 48, N-[(1S)-5-[2-(2-aminopyridin-3-yl)-5-fluoroimidazo[4,5-b]pyridin-3-yl]-2,3-dihydro-1H-inden-1-yl]-3-formyl-4-hydroxybenzamide], for which the pIC50 at AKT1 E17K is 7.00 to 8.00; at AKT1 WT it was 5.70 to 7.00; on AKT2 it was at most 5.70; in test [1], 5.70 to 7.00.
As for `Nc1ccn(-c2ccc3nc(-c4cccnc4N)n(-c4ccc5c(c4)CC[C@@H]5NC(=O)c4ccc(O)c(C=O)c4)c3n2)n1` [Example 134, N-[(1S)-5-[5-(3-aminopyrazol-1-yl)-2-(2-aminopyridin-3-yl)imidazo[4,5-b]pyridin-3-yl]-2,3-dihydro-1H-inden-1-yl]-3-formyl-4-hydroxybenzamide], the pIC50 on AKT1 E17K was 7.00 to 8.00; at AKT1 WT, 5.70 to 7.00; on AKT2, 5.70 to 7.00; in test [1], 5.70 to 7.00.
`Nc1ncccc1-c1nc2ccc(-c3ccccc3)nc2n1-c1ccc2c(c1)CC[C@@H]2NC(=O)c1cc(C=O)c(O)cc1F` [Example 16, N-[(1S)-5-[2-(2-aminopyridin-3-yl)-5-phenylimidazo[4,5-b]pyridin-3-yl]-2,3-dihydro-1H-inden-1-yl]-2-fluoro-5-formyl-4-hydroxybenzamide]: the pIC50 was 7.00 to 8.00 at AKT1 E17K, 7.00 to 8.00 on AKT1 WT, 7.00 to 8.00 on AKT2 and 5.70 to 7.00 in test [1].
